Test results as given in ChEMBL document CHEMBL1201862, “PubChem BioAssay data set” (2004).
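Protocol summary: plate cells (96-well), add compound at 5 concentrations, incubate 48 h, interpolate endpoints linearly. Here, GI50 denotes the concentration required for 50% inhibition of growth.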 Activity calls are given as the source filed them. No stated cut-off is given here; in the data, active = GI50 up to about 1.1 µM and inactive = higher.

Columns and labels:
Experiment in all cases: NCI-60 cell line screen, 48 h
[1] = system: SK-MEL-5
[2] = system: OVCAR-3
[3] = system: Malme-3M
[4] = system: MOLT-4
[5] = system: NCI-H522
[6] = system: KM12
[7] = system: UO-31
[8] = system: LXFL 529
[9] = system: SW-620
[10] = system: SF-539
[11] = system: SK-MEL-2
[12] = system: UACC-62
[13] = system: NCI-H226
[14] = system: RPMI-8226
[15] = system: M14
[16] = system: CCRF-CEM
[17] = system: HCC 2998
[18] = system: DMS-114
[19] = system: COLO 205
[20] = system: IGROV-1
[21] = system: HOP-92
[22] = system: SF-295
[23] = system: 786-0
[24] = system: TK-10
[25] = system: HT-29
[26] = system: HL-60
[27] = system: UACC-257
[28] = system: SN12C
[29] = system: HCT-116
[30] = system: OVCAR-4
[31] = system: CAKI-1
[32] = system: SNB-78
[33] = system: K562
[34] = system: SR
[35] = system: NCI-H23
[36] = system: SK-OV-3
[37] = system: LOX IMVI
[38] = system: M19-MEL
[39] = system: DLD-1
[40] = system: SNB-19
[41] = system: EKVX
[42] = system: ACHN
[43] = system: DMS-273
[44] = system: SNB-75
[45] = system: HCT-15
[46] = system: HOP-18
[47] = system: SF-268
[48] = system: XF498
[49] = system: RXF 393
[50] = system: A549
[51] = system: A498
[52] = system: SK-MEL-28
[53] = system: OVCAR-5
[54] = system: HOP-62
[55] = system: U-251
[56] = system: OVCAR-8
[57] = system: NCI-H460
[58] = system: KM-20L2
[59] = system: RXF 631

COc1ccc(-c2c(C3=NCCN3)nnn2-c2ccccc2)cc1
GI50 [1]: > 100 µM (inactive) | GI50 [2]: > 100 µM (inactive) | GI50 [3]: > 100 µM (inactive) | GI50 [4]: > 100 µM (inactive) | GI50 [5]: > 100 µM (inactive) | GI50 [6]: > 100 µM (inactive) | GI50 [7]: > 100 µM (inactive) | GI50 [8]: > 100 µM (inactive) | GI50 [9]: > 100 µM (inactive) | GI50 [10]: > 100 µM (inactive) | GI50 [11]: > 100 µM (inactive) | GI50 [12]: > 100 µM (inactive) | GI50 [13]: > 100 µM (inactive) | GI50 [14]: > 100 µM (inactive) | GI50 [15]: > 100 µM (inactive) | GI50 [16]: > 100 µM (inactive) | GI50 [17]: > 100 µM (inactive) | GI50 [18]: > 100 µM (inactive) | GI50 [19]: 98.9 µM (inactive) | GI50 [20]: > 100 µM (inactive) | GI50 [21]: > 100 µM (inactive) | GI50 [22]: > 100 µM (inactive) | GI50 [23]: > 100 µM (inactive) | GI50 [24]: > 100 µM (inactive) | GI50 [25]: 91.2 µM (inactive) | GI50 [26]: 67.3 µM (inactive) | GI50 [27]: > 100 µM (inactive) | GI50 [28]: > 100 µM (inactive) | GI50 [29]: 99.1 µM (inactive) | GI50 [30]: > 100 µM (inactive) | GI50 [31]: > 100 µM (inactive) | GI50 [32]: > 100 µM (inactive) | GI50 [33]: > 100 µM (inactive) | GI50 [34]: 89.9 µM (inactive) | GI50 [35]: > 100 µM (inactive) | GI50 [36]: > 100 µM (inactive) | GI50 [37]: > 100 µM (inactive) | GI50 [38]: > 100 µM (inactive) | GI50 [39]: > 100 µM (inactive) | GI50 [40]: > 100 µM (inactive) | GI50 [41]: > 100 µM (inactive) | GI50 [42]: > 100 µM (inactive) | GI50 [43]: > 100 µM (inactive) | GI50 [44]: 98.9 µM (inactive) | GI50 [45]: > 100 µM | GI50 [46]: > 100 µM (inactive) | GI50 [47]: > 100 µM (inactive) | GI50 [48]: > 100 µM (inactive) | GI50 [49]: > 100 µM (inactive) | GI50 [50]: > 100 µM (inactive) | GI50 [51]: > 100 µM (inactive) | GI50 [52]: > 100 µM (inactive) | GI50 [53]: > 100 µM (inactive) | GI50 [54]: > 100 µM (inactive) | GI50 [55]: > 100 µM (inactive) | GI50 [56]: > 100 µM (inactive) | GI50 [57]: > 100 µM (inactive) | GI50 [58]: > 100 µM (inactive)

Cn1cnc([N+](=O)[O-])c1Sc1nc2ccccc2s1
GI50 [1]: 13.7 µM (inactive) | GI50 [2]: 3.7 µM (inactive) | GI50 [3]: 1.84 µM (inactive) | GI50 [4]: 1.89 µM (inactive) | GI50 [6]: 15.1 µM (inactive) | GI50 [7]: 9.57 µM (inactive) | GI50 [8]: 10.5 µM (inactive) | GI50 [9]: 4 µM (inactive) | GI50 [10]: 12.5 µM (inactive) | GI50 [12]: 11.9 µM (inactive) | GI50 [13]: 9.84 µM (inactive) | GI50 [14]: 12.5 µM (inactive) | GI50 [15]: 15.2 µM (inactive) | GI50 [17]: 10.2 µM (inactive) | GI50 [18]: 3.9 µM (inactive) | GI50 [19]: 3.33 µM (inactive) | GI50 [20]: 11.9 µM (inactive) | GI50 [21]: 2.77 µM (inactive) | GI50 [22]: 20.8 µM (inactive) | GI50 [23]: 11.8 µM (inactive) | GI50 [25]: 13.3 µM (inactive) | GI50 [28]: 4.33 µM (inactive) | GI50 [29]: 5.47 µM (inactive) | GI50 [30]: 3.01 µM (inactive) | GI50 [59]: 4.84 µM (inactive) | GI50 [31]: 1.57 µM (inactive) | GI50 [32]: 12.7 µM (inactive) | GI50 [34]: 3.48 µM (inactive) | GI50 [35]: 10.9 µM (inactive) | GI50 [36]: 15.5 µM (inactive) | GI50 [37]: 15.3 µM (inactive) | GI50 [38]: 11.5 µM (inactive) | GI50 [39]: 5.07 µM (inactive) | GI50 [40]: 14.5 µM (inactive) | GI50 [41]: 3.96 µM (inactive) | GI50 [42]: 15 µM (inactive) | GI50 [43]: 1.36 µM (inactive) | GI50 [44]: 15.6 µM (inactive) | GI50 [45]: 2.99 µM | GI50 [46]: 0.286 µM (active) | GI50 [47]: 7.19 µM (inactive) | GI50 [49]: 2.15 µM (inactive) | GI50 [50]: 10.2 µM (inactive) | GI50 [52]: 9.1 µM (inactive) | GI50 [53]: 14.6 µM (inactive) | GI50 [54]: 25.2 µM (inactive) | GI50 [55]: 11.7 µM (inactive) | GI50 [56]: 4.07 µM (inactive) | GI50 [57]: 12 µM (inactive) | GI50 [58]: 10.4 µM (inactive)

CC1=NN(C(=O)CC(=O)Nc2cccc(Cl)c2)C(=O)C1/N=N/c1ccc(S(N)(=O)=O)cc1 (stereo not drawn)
GI50 [1]: > 100 µM (inactive) | GI50 [2]: > 100 µM (inactive) | GI50 [3]: > 100 µM (inactive) | GI50 [4]: > 100 µM (inactive) | GI50 [5]: > 100 µM (inactive) | GI50 [6]: > 100 µM (inactive) | GI50 [7]: > 100 µM (inactive) | GI50 [8]: > 100 µM (inactive) | GI50 [9]: > 100 µM (inactive) | GI50 [10]: > 100 µM (inactive) | GI50 [11]: > 100 µM (inactive) | GI50 [12]: > 100 µM (inactive) | GI50 [13]: > 100 µM (inactive) | GI50 [14]: > 100 µM (inactive) | GI50 [15]: > 100 µM (inactive) | GI50 [17]: > 100 µM (inactive) | GI50 [18]: > 100 µM (inactive) | GI50 [19]: > 100 µM (inactive) | GI50 [20]: > 100 µM (inactive) | GI50 [21]: > 100 µM (inactive) | GI50 [22]: > 100 µM (inactive) | GI50 [23]: > 100 µM (inactive) | GI50 [24]: > 100 µM (inactive) | GI50 [25]: > 100 µM (inactive) | GI50 [27]: > 100 µM (inactive) | GI50 [28]: > 100 µM (inactive) | GI50 [29]: > 100 µM (inactive) | GI50 [30]: > 100 µM (inactive) | GI50 [31]: > 100 µM (inactive) | GI50 [32]: > 100 µM (inactive) | GI50 [34]: > 100 µM (inactive) | GI50 [35]: > 100 µM (inactive) | GI50 [36]: > 100 µM (inactive) | GI50 [37]: > 100 µM (inactive) | GI50 [38]: > 100 µM (inactive) | GI50 [39]: > 100 µM (inactive) | GI50 [40]: > 100 µM (inactive) | GI50 [41]: > 100 µM (inactive) | GI50 [42]: > 100 µM (inactive) | GI50 [43]: > 100 µM (inactive) | GI50 [44]: > 100 µM (inactive) | GI50 [45]: > 100 µM | GI50 [46]: > 100 µM (inactive) | GI50 [47]: > 100 µM (inactive) | GI50 [48]: > 100 µM (inactive) | GI50 [49]: > 100 µM (inactive) | GI50 [50]: > 100 µM (inactive) | GI50 [51]: > 100 µM (inactive) | GI50 [52]: > 100 µM (inactive) | GI50 [53]: > 100 µM (inactive) | GI50 [54]: > 100 µM (inactive) | GI50 [55]: > 100 µM (inactive) | GI50 [56]: > 100 µM (inactive) | GI50 [57]: > 100 µM (inactive) | GI50 [58]: > 100 µM (inactive)
